From patent US8063071B2 (GlaxoSmithKline, LLC, priority 2007, dated 2011)
Where a name gives a salt, the structure may show the parent alone.

Key:
[1] = test system: human monocyte stimulated cytokine production (TNF-α); assay: Monocyte assay (LPS-stimulated TNF-α production); assay type: cell-based; conditions: for inhibition at 0.3 µM: read-out: inhibition at 300 nM in the monocyte assay; for IC50: 24 h, 200 ng/mL LPS, TNF-α by ELISA
Method in brief: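 Human CD14+ monocytes were purified from blood and plated at 1×10^6 cells/mL in RPMI 1640 with 10% FBS. Compound was added 30 min before stimulation with 200 ng/mL LPS (0.1% DMSO final), followed by 24 hrs at 37 C. Supernatant TNF-α was measured by ELISA, and viability by trypan blue exclusion.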

[2] = target: T1, Recombinant human IKKβ (residues 1-737) (Homo sapiens, UniProt O14920); assay: IKK2 assay (TR-FRET); assay type: biochemical; conditions: ATP 1 μM final, read-out: pIC50 against IKK2 (converted)
T1 construct: Recombinant human IKKβ (residues 1-737); GST (C); made in house
T1 sequence (O14920 1-737): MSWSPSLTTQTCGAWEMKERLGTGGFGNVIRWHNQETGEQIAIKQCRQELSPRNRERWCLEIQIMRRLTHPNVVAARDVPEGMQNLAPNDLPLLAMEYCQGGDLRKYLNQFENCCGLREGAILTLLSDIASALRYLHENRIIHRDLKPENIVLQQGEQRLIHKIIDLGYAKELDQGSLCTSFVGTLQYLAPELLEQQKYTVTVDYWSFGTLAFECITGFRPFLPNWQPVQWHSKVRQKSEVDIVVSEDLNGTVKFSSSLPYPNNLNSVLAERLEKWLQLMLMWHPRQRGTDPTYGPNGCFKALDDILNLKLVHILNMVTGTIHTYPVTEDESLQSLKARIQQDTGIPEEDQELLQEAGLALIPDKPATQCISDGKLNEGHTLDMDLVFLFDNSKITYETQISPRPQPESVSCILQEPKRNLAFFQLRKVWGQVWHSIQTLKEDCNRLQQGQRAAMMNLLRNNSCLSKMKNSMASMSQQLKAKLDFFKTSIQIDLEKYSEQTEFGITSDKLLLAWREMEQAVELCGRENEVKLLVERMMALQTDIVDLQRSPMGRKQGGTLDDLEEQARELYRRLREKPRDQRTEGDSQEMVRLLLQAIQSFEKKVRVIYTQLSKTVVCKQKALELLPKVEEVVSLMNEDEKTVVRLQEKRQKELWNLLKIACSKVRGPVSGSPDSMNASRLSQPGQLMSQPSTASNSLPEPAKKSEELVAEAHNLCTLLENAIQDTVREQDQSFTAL
Method in brief: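 Baculovirus-expressed C-terminal GST-tagged IKKβ (0.5-5 nM final) in HEPES pH 7.4, MgCl2, CHAPS, DTT, BSA with 1.7% DMSO; 25 nM GST-IB substrate and 1 μM ATP, 15 min at room temperature. EDTA stop; phospho-Ser32/36 detected by Eu-antibody/APC-anti-GST TR-FRET, 665/620 nm ratio.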

For `CCS(=O)(=O)N1CCC(c2c[nH]c3c(C(N)=O)cc(-c4csc(CN(C)CC5CCN(C(C)C)C5)c4)cc23)CC1` (centres unmarked) [Example 79, 3-[1-(ethylsulfonyl)-4-piperidinyl]-5-{5-[(methyl{[1-(1-methylethyl)-3-pyrrolidinyl]methyl}amino)methyl]-3-thienyl}-1H-indole-7-carboxamide trifluoroacetate], the inhibition at 0.3 µM [1] was 0 to 60% and the IC50 [2] was ≤ 10 µM.
In the case of `CCS(=O)(=O)N1CCC(c2c[nH]c3c(C(N)=O)cc(-c4csc(CN(C)Cc5cccs5)c4)cc23)CC1` [Example 80, 3-[1-(ethylsulfonyl)-4-piperidinyl]-5-(5-{[methyl(2-thienylmethyl)amino]methyl}-3-thienyl)-1H-indole-7-carboxamide trifluoroacetate], the inhibition at 0.3 µM [1] is reported as 0 to 60% and the IC50 [2] is reported as ≤ 10 µM.
`CCS(=O)(=O)N1CCC(c2c[nH]c3c(C(N)=O)cc(-c4csc(CN(C)C(C)c5cccs5)c4)cc23)CC1` (centres unmarked) [Example 81, 3-[1-(ethylsulfonyl)-4-piperidinyl]-5-[5-({methyl[1-(2-thienyl)ethyl]amino}methyl)-3-thienyl]-1H-indole-7-carboxamide trifluoroacetate] was tested, and the inhibition at 0.3 µM [1] was 0 to 60% and the IC50 [2] was ≤ 10 µM.
For `CCS(=O)(=O)N1CCC(c2c[nH]c3c(C(N)=O)cc(-c4csc(CN(C)Cc5ccsc5)c4)cc23)CC1` [Example 82, 3-[1-(ethylsulfonyl)-4-piperidinyl]-5-(5-{[methyl(3-thienylmethyl)amino]methyl}-1′-3-thienyl)-1H-indole-7-carboxamide trifluoroacetate], the IC50 [1] was ≤ 1.5 µM and the IC50 [2] was ≤ 10 µM.
With `CCS(=O)(=O)N1CCC(c2c[nH]c3c(C(N)=O)cc(-c4csc(CN(C)CC5CCOCC5)c4)cc23)CC1` [Example 83, 3-[1-(ethylsulfonyl)-4-piperidinyl]-5-(5-{[methyl(tetrahydro-2H-pyran-4-ylmethyl)amino]methyl}-3-thienyl)-1H-indole-7-carboxamide trifluoroacetate] the IC50 [1] was ≤ 1.5 µM and the IC50 [2] was ≤ 10 µM.
In the case of `CCS(=O)(=O)N1CCC(c2c[nH]c3c(C(N)=O)cc(-c4csc(CN(C)Cc5cccnc5)c4)cc23)CC1` [Example 84, 3-[1-(ethylsulfonyl)-4-piperidinyl]-5-(5-{[methyl(3-pyridinylmethyl)amino]methyl}-3-thienyl)-1H-indole-7-carboxamide trifluoroacetate], the inhibition at 0.3 µM [1] is reported as 0 to 60% and the IC50 [2] is reported as ≤ 10 µM.
With `CCS(=O)(=O)N1CCC(c2c[nH]c3c(C(N)=O)cc(-c4csc(CN(C)Cc5ccncn5)c4)cc23)CC1` [Example 85, 3-[1-(ethylsulfonyl)-4-piperidinyl]-5-(5-{[methyl(4-pyrimidinylmethyl)amino]methyl}-3-thienyl)-1H-indole-7-carboxamide trifluoroacetate] the inhibition at 0.3 µM [1] was 0 to 60% and the IC50 [2] was ≤ 10 µM.
`CCS(=O)(=O)N1CCC(c2c[nH]c3c(C(N)=O)cc(-c4csc(CN(C)CCOC)c4)cc23)CC1` [Example 86, 3-[1-(ethylsulfonyl)-4-piperidinyl]-5-[5-({methyl[2-(methyloxy)ethyl]amino}methyl)-3-thienyl]-1H-indole-7-carboxamide trifluoroacetate] was tested, and the IC50 [1] was ≤ 1.5 µM and the IC50 [2] was ≤ 10 µM.
In the case of `CCS(=O)(=O)N1CCC(c2c[nH]c3c(C(N)=O)cc(-c4csc(CN(C)C(C)C)c4)cc23)CC1` [Example 88, 3-[1-(ethylsulfonyl)-4-piperidinyl]-5-(5-{[methyl(1-methylethyl)amino]methyl}-3-thienyl)-1H-indole-7-carboxamide trifluoroacetate], the IC50 [1] is reported as ≤ 1.5 µM and the IC50 [2] is reported as ≤ 10 µM.
`CCCC1CCCN1Cc1cc(-c2cc(C(N)=O)c3[nH]cc(C4CCN(S(=O)(=O)CC)CC4)c3c2)cs1` (centres unmarked) [Example 89, 3-[1-(ethylsulfonyl)-4-piperidinyl]-5-{5-[(2-propyl-1-pyrrolidinyl)methyl]-3-thienyl}-1H-indole-7-carboxamide] was tested, and the IC50 [1] was ≤ 1.5 µM and the IC50 [2] was ≤ 10 µM.
In the case of `CCS(=O)(=O)N1CCC(c2c[nH]c3c(C(N)=O)cc(-c4csc(CN5CCCC5c5cccnc5)c4)cc23)CC1` (centres unmarked) [Example 90, 3-[1-(ethylsulfonyl)-4-piperidinyl]-5-(5-{[2-(3-pyridinyl)-1-pyrrolidinyl]methyl}-3-thienyl)-1H-indole-7-carboxamide], the inhibition at 0.3 µM [1] is reported as 0 to 60% and the IC50 [2] is reported as ≤ 10 µM.
For `CCS(=O)(=O)N1CCC(c2c[nH]c3c(C(N)=O)cc(-c4csc(CN5CCCC5C(C)(C)C)c4)cc23)CC1` (centres unmarked) [Example 91, 5-(5-{[2-(1,1-dimethylethyl)-1-pyrrolidinyl]methyl}-3-thienyl)-3-[1-(ethylsulfonyl)-4-piperidinyl]-1H-indole-7-carboxamide trifluoroacetate], the inhibition at 0.3 µM [1] was 0 to 60% and the IC50 [2] was ≤ 10 µM.
With `CCC1CCCN1Cc1cc(-c2cc(C(N)=O)c3[nH]cc(C4CCN(S(=O)(=O)CC)CC4)c3c2)cs1` (centres unmarked) [Example 92, 5-{5-[(2-ethyl-1-pyrrolidinyl)methyl]-3-thienyl}-3-[1-(ethylsulfonyl)-4-piperidinyl]-1H-indole-7-carboxamide] the IC50 [1] was ≤ 1.5 µM and the IC50 [2] was ≤ 10 µM.
With `CCS(=O)(=O)N1CCC(c2c[nH]c3c(C(N)=O)cc(-c4csc(CN5CCCC5C(C)C)c4)cc23)CC1` (centres unmarked) [Example 94, 3-[1-(ethylsulfonyl)-4-piperidinyl]-5-(5-{[2-(1-methylethyl)-1-pyrrolidinyl]methyl}-3-thienyl)-1H-indole-7-carboxamide] the inhibition at 0.3 µM [1] was 0 to 60% and the IC50 [2] was ≤ 10 µM.
`CCS(=O)(=O)N1CCC(c2c[nH]c3c(C(N)=O)cc(-c4csc(CN5CCC[C@H]5COC)c4)cc23)CC1` [Example 95, 3-[1-(ethylsulfonyl)-4-piperidinyl]-5-[5-({(2S)-2-[(methyloxy)methyl]-1-pyrrolidinyl}methyl)-3-thienyl]-1H-indole-7-carboxamide] was tested, and the IC50 [1] was ≤ 1.5 µM and the IC50 [2] was ≤ 10 µM.
In the case of `CCS(=O)(=O)N1CCC(c2c[nH]c3c(C(N)=O)cc(-c4csc(CN(C)C5CCCCC5)c4)cc23)CC1` [Example 96, 5-(5-{[cyclohexyl(methyl)amino]methyl}-3-thienyl)-3-[1-(ethylsulfonyl)-4-piperidinyl]-1H-indole-7-carboxamide], the IC50 [1] is reported as ≤ 1.5 µM and the IC50 [2] is reported as ≤ 10 µM.
In the case of `CCCN(C)Cc1cc(-c2cc(C(N)=O)c3[nH]cc(C4CCN(S(=O)(=O)C(C)C)CC4)c3c2)cs1` [Example 100, 3-{1-[(1-methylethyl)sulfonyl]-4-piperidinyl}-5-(5-{[methyl(propyl)amino]methyl}-3-thienyl)-1H-indole-7-carboxamide trifluoroacetate], the IC50 [1] is reported as ≤ 1.5 µM and the IC50 [2] is reported as ≤ 10 µM.
For `CCN(C)Cc1cc(-c2cc(C(N)=O)c3[nH]cc(C4CCN(S(=O)(=O)C(C)C)CC4)c3c2)cs1` [Example 101, 5-(5-{[ethyl(methyl)amino]methyl}-3-thienyl)-3-{1-[(1-methylethyl)sulfonyl]-4-piperidinyl}-1H-indole-7-carboxamide], the IC50 [1] was ≤ 1.5 µM and the IC50 [2] was ≤ 10 µM.
`COCCN(C)Cc1cc(-c2cc(C(N)=O)c3[nH]cc(C4CCN(S(=O)(=O)C(C)C)CC4)c3c2)cs1` [Example 102, 3-{1-[(1-methylethyl)sulfonyl]-4-piperidinyl}-5-[5-({methyl[2-(methyloxy)ethyl]amino}methyl)-3-thienyl]-1H-indole-7-carboxamide] was tested, and the IC50 [1] was ≤ 1.5 µM and the IC50 [2] was ≤ 10 µM.
With `CCS(=O)(=O)N1CCC(c2c[nH]c3c(C(N)=O)cc(-c4ccc(CNC)s4)cc23)CC1` [Example 103, 3-[1-(ethylsulfonyl)-4-piperidinyl]-5-{5-[(methylamino)methyl]-2-thienyl}-1H-indole-7-carboxamide] the IC50 [1] was ≤ 1.5 µM and the IC50 [2] was ≤ 10 µM.
In the case of `CCS(=O)(=O)N1CCC(c2c[nH]c3c(C(N)=O)cc(-c4csc(CN5CCCC5C)c4)cc23)CC1` (centres unmarked) [Example 104, 3-[1-(ethylsulfonyl)-4-piperidinyl]-5-{5-[(2-methyl-1-pyrrolidinyl)methyl]-3-thienyl}-1H-indole-7-carboxamide trifluoroacetate], the IC50 [1] is reported as ≤ 1.5 µM and the IC50 [2] is reported as ≤ 10 µM.
In the case of `CCS(=O)(=O)N1CCC(c2c[nH]c3c(C(N)=O)cc(-c4csc(CNCC(C)C)c4)cc23)CC1` [Example 105, 3-[1-(ethylsulfonyl)-4-piperidinyl]-5-(5-{[(2-methylpropyl)amino]methyl}-3-thienyl)-1H-indole-7-carboxamide trifluoroacetate], the IC50 [1] is reported as ≤ 1.5 µM and the IC50 [2] is reported as ≤ 10 µM.
